Structures can show the parent of a compound that is named as a salt. Where two headings read alike, the source gives them in different places. Bounds are passed on as bounds.

For one data set, the system named is SARS-CoV-2. Nature of the data set: SARS-CoV-2/Hela-ACE test. The format is cell-based. To be noted: read-out: SAR-CoV-2 EC50.
A short description of data set [1]: Toxicity testing in uninfected cells. Format: cell-based. To be noted: human, uninfected Hela-ACE cells, Cell-Titer Glo. The procedure:
(§1) Toxicity Testing in Uninfected Cells
(§2) The compound was transferred to a 1536-well plate (Corning No. 9006BC), and then Hela-ACE cells were added (cell density: 600 cells/5 microliter of medium MEM with 2% FBS). After the assay plate was incubated at 37° C. in 5% CO2 for 48 hours, cell viability was tested. 2 μL of 50% Cell-Titer Glo (Promega No G7573) was diluted in water and added to a cell assay plate, and then a value on En Vision Plate Reader (Perkin Elmer) was read.

For data set [2], the target named is SARS-CoV-2 main protease (3CLpro) (Severe acute respiratory syndrome coronavirus 2 (2019-nCoV) (SARS-CoV-2), UniProt P0DTD1). Nature of the data set: Enzyme activity test. To be noted: 200 nM recombinant SARS-CoV-2 main protease, 15 μM fluorescent substrate, pH 7.3. The format is biochemical.
Data set [3] can be described thus: Oral pharmacokinetics in rats. To be noted: rat, blood, male SD rats, 15 mg/kg. The format is in vivo. How it is done:
Test Example 2: Measurement of Oral Pharmacokinetics in Rats
Male SD rats were orally administered with 15 mg/kg of the compound in the examples of the present disclosure, and blood samples were collected at 0.083, 0.25, 0.5, 1, 2, 4, and 8 hours respectively. After the samples were treated with anticoagulant EDTA-K2 and acetonitrile and centrifuged, a drug concentration analysis was conducted using LC/MS/MS.

For the next data set, the system named is Hela-ACE cells. Nature of the data set: Toxicity testing in uninfected cells. To be noted: 48 hours, Cell-Titer Glo. Format: cell-based. How it is done:
as §1, §2

Where [4] appears, read: Severe acute respiratory syndrome coronavirus 2, Hela-ACE cells infected with SARS-CoV-2 (USA-WA1/2020), 48 hours.
Setting [5] is: Severe acute respiratory syndrome coronavirus 2, 48 h.

`CC(=O)N[C@H](C(=O)N1C[C@H]2[C@@H]([C@H]1C(=O)NC(C#N)c1cncc(C#N)c1)C2(C)C)C(C)(C)C` (stereo partly drawn) [GDI-010, (1R,2S,5S)-3-((S)-2-acetamido-3,3-dimethylbutyryl)-N-(cyano(5-cyanopyridin-3-yl)methyl)-6,6-dimethyl-3-azabicyclo[3.1.0]hexane-2-carboxamide]: the 50% effective concentration (EC50) in the data set with SARS-CoV-2 (setting [4]) worked out at 5720 nM. In data set [1], this compound registered a CC50 at 48 h of over 39800 nM. Also, in data set [2], the half-maximal inhibitory concentration (IC50) was 330 nM.
In the case of `CC(C)(C)[C@H](NC(=O)C(F)(F)F)C(=O)N1C[C@H]2[C@@H]([C@H]1C(=O)NC(C#N)c1cncc(C#N)c1)C2(C)C` (stereo partly drawn) [GDI-014, (1R,2S,5S)-N-(cyano(5-cyanopyridin-3-yl)methyl)-3-((S)-3,3-dimethyl-2-(2,2,2-trifluoroacetylamino)butyryl)-6,6-dimethyl-3-azabicycl o[3.1.0]hexane-2-carboxamide], in data set [2], the IC50 worked out at 46 nM. In data set [3], the AUC(0-inf) came out at 7820 ng·h/mL, the AUC(0-t) came to 7800 ng·h/mL, the highest level (Cmax) was 5000 ng/mL and the half-life was 0.832 h.
`CC(=O)N[C@H](C(=O)N1C[C@H]2[C@@H]([C@H]1C(=O)NC(C#N)c1cncc(C(F)(F)F)c1)C2(C)C)C(C)(C)C` (stereo partly drawn) [GDI-007, (1R,2S,5S)-3-((S)-2-acetamido-3,3-dimethylbutanol)-N-(cyano(5-(trifluoromethyl)pyridin-3-yl)methyl)-6,6-dimethyl-3-azabicyclo [3.1.0]hexane-2-carboxamide]: the EC50 in the data set with SARS-CoV-2 (setting [4]) came out at 512 nM. The same compound gave a half-maximal cytotoxic concentration (CC50) at 48 h in data set [1] of over 39800 nM. The IC50 in data set [2] was 170 nM.
Consider `CC(C)(C)[C@H](NC(=O)C(F)(F)F)C(=O)N1C[C@H]2[C@@H]([C@H]1C(=O)NC(C#N)c1cncc(Br)c1)C2(C)C` (stereo partly drawn) [GDI-011, (1R,2S,5S)-N-((5-bromopyridin-3-yl) (cyano)methyl)-3-((S)-3,3-dimethyl-2-(2,2,2-trifluoroacetylamino)butyryl)-6,6-dimethyl-3-aza bicyclo[3.1.0]hexane-2-carboxamide], for which, in the data set with SARS-CoV-2 (setting [5]), the EC50 amounted to 613 nM. Also, the CC50 at 48 h in data set [1] was over 39800 nM. Further, in data set [2], the IC50 was 78 nM. For the same compound, in data set [3], the area under the curve AUC(0-inf) was found to be 3470 ng·h/mL, the AUC(0-t) was 3450 ng·h/mL, the Cmax stood at 1870 ng/mL and the half-life was 1.05 h.
Turning to `COc1cncc(C(C#N)NC(=O)[C@@H]2[C@@H]3[C@H](CN2C(=O)[C@@H](NC(C)=O)C(C)(C)C)C3(C)C)c1` (stereo partly drawn) [GDI-008, (1R,2S,5S)-3-((S)-2-acetamido-3,3-dimethylbutyryl)-N-(cyano(5-methoxypyridin-3-yl)methyl)-6,6-dimethyl-3-azabicyclo[3.1.0]he xane-2-carboxamide], in the data set with SARS-CoV-2 (setting [4]), the 50% effective concentration (EC50) worked out at 417 nM. In data set [1], the CC50 at 48 h is over 39800 nM. For the same compound, in data set [2], the IC50 was 37 nM.
On the same counts, the results for `Cc1ccc(S(=O)(=O)N[C@H](C(=O)N2C[C@H]3[C@@H]([C@H]2C(=O)NC(C#N)c2cncc(C(F)(F)F)c2)C3(C)C)C(C)(C)C)cc1` (stereo partly drawn) [GDI-016, (1R,2S,5S)-N-(cyano(5-(trifluoromethyl)pyridin-3-yl)methyl)-3-((S)-3,3-dimethyl-2-((4-methylphenyl)sulfonamido)butanoyl)-6,6-dimet hyl-3-azabicyclo[3.1.0]hexane-2-carboxamide] are 32 nM, over 39200 nM and 31 nM.
On the same counts, the results for `CC(=O)N[C@H](C(=O)N1C[C@H]2[C@@H]([C@H]1C(=O)NC(C#N)c1cncc(C)c1)C2(C)C)C(C)(C)C` (stereo partly drawn) [GDI-005, (1R,2S,5S)-3-((S)-2-acetamido-3,3-dimethylbutyryl)-N-(cyano(5-methylpyridin-3-yl)methyl)-6,6-dimethyl-3-azabicyclo[3.1.0]hex ane-2-carboxamide] are 117 nM, over 39800 nM and 80 nM.
For `CC(C)(C)OC(=O)NC(C(=O)N1C[C@H]2[C@@H]([C@H]1C(=O)NC(C#N)c1cncc(Br)c1)C2(C)C)C(C)(C)C` (stereo partly drawn) [GDI-001], in the data set on SARS-CoV-2 (setting [4]), the concentration giving a half-maximal response (EC50) was determined as 462 nM. The CC50 at 48 h in data set [1] was over 39800 nM. In data set [2], the half-maximal inhibitory concentration (IC50) turned out to be 80 nM. Also, in data set [3], the total exposure AUC(0-inf) came out at 1830 ng·h/mL, the AUC(0-t) was 1810 ng·h/mL, the maximum concentration (Cmax) worked out at 630 ng/mL and the half-life is 2.34 h.
Turning to `CC(=O)N[C@H](C(=O)N1C[C@H]2[C@@H]([C@H]1C(=O)NC(C#N)c1cncc3ccccc13)C2(C)C)C(C)(C)C` (stereo partly drawn) [GDI-006, (1R,2S,5S)-3-((S)-2-acetamido-3,3-dimethylbutyryl)-N-(cyano(isoquinolin-4-yl)methyl)-6,6-dimethyl-3-azabicyclo[3.1.0]hexane-2-carboxamide], the EC50 in the data set on SARS-CoV-2 (setting [4]) turned out to be 28 nM. In addition, the half-maximal cytotoxic concentration (CC50) at 48 h in data set [1] was over 39800 nM. Besides, in data set [2], the half-maximal inhibitory concentration (IC50) is 28 nM. In data set [3], this compound gave an AUC(0-inf) of 1700 ng·h/mL, an area under the curve AUC(0-t) of 1690 ng·h/mL, a maximum concentration (Cmax) of 2170 ng/mL and a half-life of 0.875 h.
Take `CC(=O)N[C@H](C(=O)N1C[C@H]2[C@@H]([C@H]1C(=O)NC(C#N)c1cncc(Br)c1)C2(C)C)C(C)(C)C` (stereo partly drawn) [GDI-003, (1R,2S,5S)-3-((S)-2-acetamido-3,3-dimethylbutyryl)-N-((5-bromopyridin-3-yl)(cyano)methyl)-6,6-dimethyl-3-azabicyclo[3.1.0]he xane-2-carboxamide]: the concentration giving a half-maximal response (EC50) in the data set on SARS-CoV-2 (setting [4]) came out at 1250 nM. The compound further yielded a cytotoxic concentration (CC50) at 48 h in data set [1] of over 39800 nM. Besides, the IC50 in data set [2] amounted to 50 nM.
As for `CC(C)(C)[C@H](N)C(=O)N1C[C@H]2[C@@H]([C@H]1C(=O)NC(C#N)c1cncc(Br)c1)C2(C)C` (stereo partly drawn) [GDI-002, (1R,2S,5S)-3-((S)-2-amino-3,3-dimethylbutyryl)-N-((5-bromopyridin-3-yl)(cyano)methyl)-6,6-dimethyl-3-azabicyclo[3.1.0]he xane-2-carboxamide formate], the EC50 in the data set with SARS-CoV-2 (setting [5]) was 7860 nM. The compound also came in with a cytotoxic concentration (CC50) at 48 h in data set [1] of over 39800 nM. In addition, in data set [2], the IC50 turned out to be 320 nM.
Turning to “(1R,2S,5S)-N-(cyano(5-(3-methyl-1,2,4-oxadiazol-5-yl)pyridin-3-yl)methyl)-3-(S)-3,3-dimethyl-2-(2,2,2-trifluoroacetylamino) butyryl)- 6,6-dimethyl-3-azabicyclo[3.1.0]hexane-2-carboxamide [GDI-017]”, the half-maximal effective concentration (EC50) in the data set on SARS-CoV-2 (Hela-ACE cells infected with SARS-CoV-2 (USA-WA1/2020), 48 hours) came out at 660 nM. This compound also registered a CC50 with Hela-ACE cells of over 39800 nM. The IC50 in data set [2] is 46 nM.
`CC(=O)N[C@H](C(=O)N1C[C@H]2[C@@H]([C@H]1C(=O)N[C@@H](C#N)c1cncc3ccccc13)C2(C)C)C(C)(C)C` [GDI-037]: the EC50 in the data set on SARS-CoV-2 (setting [4]) was 30 nM. The same compound had a CC50 at 48 h in data set [1] of over 39800 nM. Further, in data set [2], the 50% inhibitory concentration (IC50) turned out to be 40 nM.
`CC(C)(C)[C@H](NC(=O)C(F)(F)F)C(=O)N1C[C@H]2[C@@H]([C@H]1C(=O)NC(C#N)c1cncc(C(F)(F)F)c1)C2(C)C` (stereo partly drawn) [GDI-012, (1R,2S,5S)-N-(cyano (5-(trifluoromethyl)pyridin-3-yl)methyl)-3-((S)-3,3-dimethyl-2-(2,2,2-trifluoroacetylamino)butyryl)-6,6-dimethyl-3-azabicyclo[3.1.0]hexane-2-carboxamide]: the IC50 in data set [2] is 24 nM. In data set [3], this compound had an AUC(0-inf) of 7140 ng·h/mL, an AUC(0-t) of 7080 ng·h/mL, a peak concentration (Cmax) of 2120 ng/mL and a half-life of 1.92 h.
In the case of `CC(=O)N[C@H](C(=O)N1C[C@H]2[C@@H]([C@H]1C(=O)NC(C#N)c1cnc3[nH]ccc3c1)C2(C)C)C(C)(C)C` (stereo partly drawn) [GDI-020, (1R,2S,5S)-3-((S)-2-acetamido-3,3-dimethylbutyryl)-N(cyano(1H-pyrrole[2,3-b]pyridin-5-yl)methyl)-6,6-dimethyl-3-azabicyclo[3. 1.0]hexane-2-carboxamide], the IC50 in data set [2] was determined as 19 nM.
The same measure, in the same setting: as for `CC(=O)N[C@H](C(=O)N1C[C@H]2[C@@H]([C@H]1C(=O)NC(C#N)c1cncc(-c3nc(C(C)C)no3)c1)C2(C)C)C(C)(C)C` (stereo partly drawn) [GDI-031, (1R,2S,5S)-3-((S)-2-acetamido-3,3-dimethylbutyryl)-N-(cyano(5-(3-isopropyl-1,2,4-oxadiazol-5-yl)pyridin-3-yl)methyl)-6,6-dimet hyl-3-azabicyclo[3.1.0]hexane-2-carboxamide], the figure is 100 nM.
Consider `CC(=O)N[C@H](C(=O)N1C[C@H]2[C@@H]([C@H]1C(=O)N[C@H](C#N)c1cncc3ccccc13)C2(C)C)C(C)(C)C` [GDI-036], for which the EC50 in the data set on SARS-CoV-2 (setting [4]) came out at 20 nM. Besides, the CC50 at 48 h in data set [1] is over 39800 nM. In addition, the IC50 in data set [2] amounted to 20 nM.

The values are drawn from patent US20240336610A1, “3CL PROTEASE SMALL-MOLECULE INHIBITOR FOR TREATING OR PREVENTING CORONAVIRUS INFECTION, AND USE THEREOF” (THE GLOBAL HEALTH DRUG DISCOVERY INSTITUTE, priority 2021, published 2024).
